Target: eosinophils
Assay: Eosinophil chemotaxis assay (assay (b))
Assay type: cell-based, human
Description: (b) Eosinophil Chemotaxis Assay.
Compounds were evaluated for their inhibitory effect on eosinophil chemotaxis. Eosinophils were purified from human peripheral blood by standard CD16 cell depletion using a Miltenyi cell separation column and a magnetic Super Macs magnet as previously described (Motegi & Kita, 1998; J. Immunology. 161:4340-6). Cells were re-suspended in RPMI 1640/10% FCS solution and incubated with calcein-AM (Molecular Probes) at 37° C. for 30 mins. Following incubation, the eosinophils were centrifuged at 400 g for 5 min and re-suspended in RPMI/FCS at 2.2 million/ml. Cells were then incubated in the presence of increasing concentration of compounds (1 pM to 30 μM) at 37° C. for 30 mins. For control responses cells were incubated with RPMI/FCS only. The agonist eotaxin (either a concentration response curve or for the functional inhibition curves an EC80 concentration) was added to the lower chamber of a 96 well chemotaxis plate (5 μm filter: Receptor Technologies). […] Cells remaining on top of the chemotaxis filter were removed and the number of eosinophils which had migrated were quantified by reading the plate on a fluorescent plate reader. Inhibition curves for the effect of compounds on eosinophil chemotaxis were analysed by fitting the data with a four parameter logistic equation. […]

NS(=O)(=O)c1cccc(CC(=O)NC[C@H]2CN(Cc3ccc(Cl)c(Cl)c3)CCO2)c1 [Example 162, 2-[3-(Aminosulfonyl)phenyl]-N-{[(2S)-4-(3,4-dichlorobenzyl)morpholin-2-yl]methyl}acetamide]
CCR-3 Eosinophil Chemotaxis Assay (fpKi): 8.2
